No end group written: not given here.
Key:
[1] = tested on: spontaneously hypertensive rats (SHRs); test: Long-term antihypertensive activity in SHRs (28 days, SBP); assay type: in vivo, rat; settings: male SHR, captopril 40 mg/kg BW
Method: The in vivo tests for antihypertensive activity of peanut peptide was conducted using a previous method, and whole tests were conducted in Chinese Medicine Experiment Center of Hubei College of Traditional Chinese Medicine, authorized by SATCM (State Administration of Traditional Chinese Medicine, China). The male spontaneously hypertensive rats (SHRs) was used for the experimental model while the average weight of each rat was between 210 and 240 g and four rats were numbered as one group for feeding. These rats had free access to food and drink in their cages located in a 25°C room temperature with 12 h of light cycle. After 1 week for adaptation to this environment, the determination of blood pressure was conducted and the comparison of different group was investigated. The SHRs were randomly divided into five groups, named blank control group, low-dose group (100 mg/kg body weight (BW)), intermediate-dose group (500 mg/kg BW), high-dose group (1000 mg/kg BW) and drug control group (40 mg Captopril/kg BW).
Long-term antihypertensive activity: Through the same method of sample preparation, these SHRs were feeded at the same time (9∶00 am–10∶00 am) of each day and the feeding continued for 28 days. […] Each SHR was measured for three times. […]

[2] = molecular target: T1, ACE (protease from rabbit lung) (Oryctolagus cuniculus, UniProt P12822); test: ACE inhibiting activity (in vitro tests), HHL substrate, HPLC; assay type: biochemical; settings: HEPES pH 8.3, 37°C, 30 min
T1 construct: ACE (protease from rabbit lung); purchased Sigma Chemical Co., St. Louis, MO, USA; host or cells: rabbit lung (tissue-derived)
T1 sequence (P12822 34-1310): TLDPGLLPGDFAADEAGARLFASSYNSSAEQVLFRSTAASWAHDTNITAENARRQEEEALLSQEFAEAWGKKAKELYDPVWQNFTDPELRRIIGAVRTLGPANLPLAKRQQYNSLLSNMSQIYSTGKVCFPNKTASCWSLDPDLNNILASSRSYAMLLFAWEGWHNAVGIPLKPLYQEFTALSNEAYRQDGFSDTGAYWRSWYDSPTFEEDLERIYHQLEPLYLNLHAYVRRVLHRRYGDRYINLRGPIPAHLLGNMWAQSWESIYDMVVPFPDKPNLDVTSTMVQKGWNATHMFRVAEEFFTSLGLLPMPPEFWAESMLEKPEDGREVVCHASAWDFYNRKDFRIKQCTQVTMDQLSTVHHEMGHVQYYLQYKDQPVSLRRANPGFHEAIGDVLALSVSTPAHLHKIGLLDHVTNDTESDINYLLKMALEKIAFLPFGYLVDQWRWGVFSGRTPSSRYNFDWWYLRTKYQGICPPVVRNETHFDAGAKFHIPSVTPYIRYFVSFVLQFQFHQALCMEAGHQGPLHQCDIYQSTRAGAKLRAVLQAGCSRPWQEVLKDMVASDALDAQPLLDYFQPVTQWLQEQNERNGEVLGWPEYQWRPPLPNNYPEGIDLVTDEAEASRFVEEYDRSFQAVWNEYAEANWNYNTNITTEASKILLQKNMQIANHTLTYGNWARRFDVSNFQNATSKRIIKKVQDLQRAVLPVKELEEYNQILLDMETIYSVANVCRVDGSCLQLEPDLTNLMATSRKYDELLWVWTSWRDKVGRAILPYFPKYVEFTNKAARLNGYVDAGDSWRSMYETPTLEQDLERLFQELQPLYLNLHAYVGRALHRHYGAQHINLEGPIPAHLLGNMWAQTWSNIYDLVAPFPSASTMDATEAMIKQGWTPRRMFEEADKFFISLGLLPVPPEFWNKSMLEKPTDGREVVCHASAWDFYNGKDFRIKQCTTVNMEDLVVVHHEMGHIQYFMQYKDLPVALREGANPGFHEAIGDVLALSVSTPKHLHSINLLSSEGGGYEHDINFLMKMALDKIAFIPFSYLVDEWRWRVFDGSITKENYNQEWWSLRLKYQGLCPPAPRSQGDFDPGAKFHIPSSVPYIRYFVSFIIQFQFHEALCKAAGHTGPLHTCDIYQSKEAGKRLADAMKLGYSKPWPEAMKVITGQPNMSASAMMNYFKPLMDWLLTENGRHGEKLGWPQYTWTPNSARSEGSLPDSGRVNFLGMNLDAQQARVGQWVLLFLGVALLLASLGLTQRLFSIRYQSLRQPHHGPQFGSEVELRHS
Text: PPI was purchased from Lanshan Group (Shandong, China). The following commercial enzymes were obtained: Alcalase (protease)-(Novo Industri A/S, Bagsvaerd, Denmark); N120P (protease)-(Kerry Co., Tralee, Ireland) and ACE (protease from rabbit lung)-(Sigma Chemical Co., St. Louis, MO, USA). Hippuryl-histidyl-leucine (HHL) was purchased from Sigma Chemical Co. (St. Louis, MO, USA). Methyl Cyanide (Merck & Co., Inc., Rahway, NJ, USA) and trifluoroacetic acid (TFA) (Fluka Co., Buchs, Switzerland) were purchased and were of chromatographic grade. All the other materials were of analytical grade and were used as received.
Determination of ACE inhibiting activity (in vitro tests)
ACE inhibiting activity was measured using Cushman and Cheung’s method with slight modification, [34]. Specifically, 20 µL of 4-hydroxyethylpiperazine ethane sulfonic acid (HEPEs) buffer solution (pH 8.3) was mixed with 20 µL sample solution in a 0.5 ml centrifuge tube. Then, 15 µL ACE solution was added into this tube and warmed at 37°C for 3 min. […]
The ACE inhibiting activity (%) was expressed in terms of hippuric acid content and was calculated using (1). […]
The dried peanut peptide powder having molecule weight below 1 kDa was first dissolved in water to make a peptide solution with 100 mg/ml concentration. […] The IC50 of each fraction was determined as in vitro tests.

ACE = tested on: ACE; parameters: method as in 3 sources, ref 52 = [52]; PMID 19886677; doi:10.1021/jf901787e; 52 Guang C , Phillips RD ( 2009 ) Purification, activity and sequence of angiotensin I converting enzyme inhibitory peptide from alcalase hydrolysate of peanut flour . Journal of agricultural and food ||| ref 43 = [43]; PMID 16680798; doi:10.1002/psc.758; 43 Li GH , Wan JZ , Le GW , Shi YH ( 2006 ) Novel angiotensin I-converting enzyme inhibitory peptides isolated from Alcalase hydrolysate of mung bean protein . Journal of Peptide Science 12 : 509 – 51 ||| ref 45 = [45]; 45 Li GH , Le GW , Shi YH , Shrestha S ( 2004 ) Angiotensin I–converting enzyme inhibitory peptides derived from food proteins and their physiological and pharmacological effects . Nutrition Research; settings: cited from earlier work; for mode of ACE inhibition: from human serum trypsin hydrolysate

In the case of `C[C@H](CS)C(=O)N1CCC[C@H]1C(=O)O` [captopril], the “antihypertensive activity compared with peanut peptide, long term” value [1] is reported as “stronger antihypertensive activity during the long term experiment”.

Work on “KLYMRP [Fraction P8, Lys-Leu-Tyr-Met-Arg-Pro]” yielded an IC50 ([2]; printed in parentheses beside the mg/mL value, read-out: IC50 (ACE inhibition)) of 6.42 µM and an inhibition at 100 µg/mL ([2]; peptide concentration 100 µg/ml, HPLC UV 228 nm) of 85.8%.

For Leu-Ile-Tyr, the “mode of ACE inhibition” value (ACE) is listed as “non-competitive”.

In the case of “Lys-Ala-Phe-Arg [peanut tetrapeptide of Guang and Phillips]”, the ACE inhibiting activity (ACE; peanut tetrapeptide) is listed as 16.9 µg/mL.

For VTPALR, the IC50 (ACE; from mung bean protein isolate using alcalase) is given as 82.4 µM.

For YLYEIAR, the “mode of ACE inhibition” value (ACE) is listed as “non-competitive”.
